This note sets out measurements from US20240150358A1, “PURINES AND METHODS OF THEIR USE” (Kineta, Inc., priority 2020, published 2024).

The term IC50 denotes the concentration that gives 50% inhibition.

Chain of full-length human PIKFYVE (Q9Y2I7 whole entry S696N/L932S/Q995L/T998S/S1033A/Q1183K): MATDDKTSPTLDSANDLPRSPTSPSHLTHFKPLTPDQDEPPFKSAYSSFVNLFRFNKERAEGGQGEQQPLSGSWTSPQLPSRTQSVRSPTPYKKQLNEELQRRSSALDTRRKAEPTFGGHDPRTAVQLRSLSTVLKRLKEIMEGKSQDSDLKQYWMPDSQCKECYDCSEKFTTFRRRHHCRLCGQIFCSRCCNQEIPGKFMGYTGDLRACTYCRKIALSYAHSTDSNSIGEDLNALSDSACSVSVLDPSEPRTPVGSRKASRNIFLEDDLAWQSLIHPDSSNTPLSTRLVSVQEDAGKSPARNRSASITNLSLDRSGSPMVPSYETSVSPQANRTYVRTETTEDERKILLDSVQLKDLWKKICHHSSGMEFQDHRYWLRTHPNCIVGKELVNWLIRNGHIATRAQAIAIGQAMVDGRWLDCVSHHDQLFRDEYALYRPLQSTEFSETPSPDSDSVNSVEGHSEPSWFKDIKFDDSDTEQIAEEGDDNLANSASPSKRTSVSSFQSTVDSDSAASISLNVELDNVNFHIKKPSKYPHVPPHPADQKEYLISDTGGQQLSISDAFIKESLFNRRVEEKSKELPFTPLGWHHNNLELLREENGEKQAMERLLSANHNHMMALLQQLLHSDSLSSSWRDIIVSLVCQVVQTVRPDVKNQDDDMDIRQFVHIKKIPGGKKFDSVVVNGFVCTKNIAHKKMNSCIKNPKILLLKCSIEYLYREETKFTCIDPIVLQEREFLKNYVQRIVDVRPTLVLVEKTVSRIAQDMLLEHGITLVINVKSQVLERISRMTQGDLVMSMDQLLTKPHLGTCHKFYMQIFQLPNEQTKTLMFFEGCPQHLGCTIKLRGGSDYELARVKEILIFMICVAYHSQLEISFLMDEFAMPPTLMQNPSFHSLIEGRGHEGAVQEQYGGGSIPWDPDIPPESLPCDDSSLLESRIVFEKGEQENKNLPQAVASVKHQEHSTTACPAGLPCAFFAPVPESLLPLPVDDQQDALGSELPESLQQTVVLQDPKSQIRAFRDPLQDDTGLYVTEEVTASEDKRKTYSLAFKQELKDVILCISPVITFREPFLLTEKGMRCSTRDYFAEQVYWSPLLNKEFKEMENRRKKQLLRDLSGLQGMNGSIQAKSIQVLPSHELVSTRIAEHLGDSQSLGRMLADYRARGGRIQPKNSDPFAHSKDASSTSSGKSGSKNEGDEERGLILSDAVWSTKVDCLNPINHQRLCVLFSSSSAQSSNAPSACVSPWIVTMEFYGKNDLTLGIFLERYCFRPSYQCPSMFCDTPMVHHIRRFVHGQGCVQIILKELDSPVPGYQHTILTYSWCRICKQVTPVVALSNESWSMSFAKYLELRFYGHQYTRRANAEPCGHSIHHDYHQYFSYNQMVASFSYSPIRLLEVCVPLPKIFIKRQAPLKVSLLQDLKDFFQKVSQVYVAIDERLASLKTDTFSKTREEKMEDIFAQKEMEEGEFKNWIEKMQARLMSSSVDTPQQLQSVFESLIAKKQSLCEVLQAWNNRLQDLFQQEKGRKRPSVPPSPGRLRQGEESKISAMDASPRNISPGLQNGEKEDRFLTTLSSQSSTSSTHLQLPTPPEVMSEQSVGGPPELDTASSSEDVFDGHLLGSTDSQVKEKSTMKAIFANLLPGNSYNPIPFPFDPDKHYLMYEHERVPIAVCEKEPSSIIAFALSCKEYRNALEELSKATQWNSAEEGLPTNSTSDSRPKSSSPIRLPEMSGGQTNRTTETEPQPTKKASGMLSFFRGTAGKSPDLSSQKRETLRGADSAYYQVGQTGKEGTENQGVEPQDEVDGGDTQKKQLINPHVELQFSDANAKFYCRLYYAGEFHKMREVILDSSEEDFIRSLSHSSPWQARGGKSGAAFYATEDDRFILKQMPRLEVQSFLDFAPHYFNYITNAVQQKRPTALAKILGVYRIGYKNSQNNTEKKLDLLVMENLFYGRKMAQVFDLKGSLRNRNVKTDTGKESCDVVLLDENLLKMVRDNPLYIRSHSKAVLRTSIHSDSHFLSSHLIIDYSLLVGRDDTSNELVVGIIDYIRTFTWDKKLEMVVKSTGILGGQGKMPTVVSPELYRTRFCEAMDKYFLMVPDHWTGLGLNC

One test concerns the target full-length human PIKFYVE (Homo sapiens (Human), UniProt Q9Y2I7, L932S/Q1183K/Q995L/S1033A/S696N/T998S). Kind of test: PIKfyve biochemical assay (ADP-Glo Kinase assay, Carna Biosciences). As to conditions: ADP-Glo, GST-PIKFYVE, 10 μM to 3 nM; read-out: hPIKfyve IC50. The protocol:
(§1) PIKfyve Biochemical Assay. The biochemical PIKFyve inhibition assays were run by Carna Biosciences according to proprietary methodology based on the Promega ADP-Glo™ Kinase assay. […] GST-PIKFYVE was purified by using glutathione sepharose chromatography and used in an ADP-Glo™ Kinase assay (Promega). Reactions were set up by adding the test compound solution, substrate solution, ATP solution and kinase solution, each at 4× final concentrations. Reactions were prepared with assay buffer (50 mM MOPS, 1 mM DTT, pH7.2), mixed, and incubated in black 384 well polystyrene plates for 1 hour at room temperature. ADPGlo™ reagent was then added for 40 minutes, followed by kinase detection reagent for an additional 40 minutes. The kinase activity was evaluated by detecting relative light units on a luminescence plate reader. Samples were run in duplicate from 10 μM to 3 nM. […] IC50 values were calculated from concentration vs % inhibition curves by fitting to a four-parameter logistic curve.
as §1, with “The” for “PIKfyve Biochemical Assay. The”, “ADP-Glo™” for “ADPGlo™”, “uM” for “μM”, “curve. […]” for “curve.”
A general note: In ADP-Glo the light output rises with the ADP produced.
For `Cn1c(-c2ccncc2)nc2nc(-c3ccnc(-c4ccccc4)n3)nc(N3CCOCC3)c21` [Compound 2, 7-methyl-6-(morpholin-4-yl)-2-(2-phenylpyrimidin-4-yl)-8-(pyridin-4-yl)-7H-purine], the IC50 lay within 1000 to 10000 nM.

With `Cn1c(-c2ccncc2)nc2c(N3CCOCC3)nc(-c3cccc(C4CCNCC4)n3)nc21` [Compound 3], the concentration for half-maximal inhibition (IC50) lay within 10 to 100 nM. The same measure, in the same setting: the figure for `Cn1c(-c2ccncc2)nc2c(N3CCOCC3)nc(-c3cccc(C4CCN(C(=O)OC(C)(C)C)CC4)n3)nc21` [Compound 4] is 100 to 1000 nM; for `CCn1c(-c2ccncc2)nc2c(N3CCOCC3)nc(-n3ccc(-c4ccccc4)n3)nc21` [Compound 5] it is 10 to 100 nM; for `Cn1c(-c2ccncc2)nc2c(N3CCOCC3)nc(-n3ccc(-c4cccnc4)n3)nc21` [Compound 7, 9-methyl-6-(morpholin-4-yl)-2-[3-(pyridin-3-yl)-1H-pyrazol-1-yl]-8-(pyridin-4-yl)-9H-purine] it is 10 to 100 nM. On the same count and under the same terms, the figure for `Cn1c(-c2ccncc2)nc2c(N3CCOCC3)ncnc21` [Compound 8] is 100 to 1000 nM; for `CN1CCC(c2nc3c(N4CCOCC4)nc(-n4ccc(-c5ccccc5)n4)nc3n2C)CC1` [Compound 9] it is 100 to 1000 nM; for `Cn1c(C2CCCNC2)nc2c(N3CCOCC3)nc(-n3ccc(-c4ccccc4)n3)nc21` (stereo not shown) [Compound 10] it is 100 to 1000 nM. On the same count and under the same terms, then `Cn1c(C2CCNCC2)nc2c(N3CCOCC3)nc(-n3ccc(-c4ccccc4)n3)nc21` [Compound 11], with 100 to 1000 nM; and `Cn1c(C2CCOCC2)nc2c(N3CCOCC3)nc(-n3ccc(-c4ccccc4)n3)nc21` [Compound 12], with 100 to 1000 nM.

Regarding `Cn1c(C2CN(C(=O)OC(C)(C)C)C2)nc2c(N3CCOCC3)nc(-n3ccc(-c4ccccc4)n3)nc21` [Compound 13, tert-butyl 3-(9-methyl-6-morpholino-2-(3-phenyl-1H-pyrazol-1-yl)-9H-purin-8-yl)azetidine-1-carboxylate], the IC50 is 10 to 100 nM. On the same count and under the same terms, then `Cn1c(C2=CCOCC2)nc2c(N3CCOCC3)nc(-n3ccc(-c4ccccc4)n3)nc21` [Compound 14], with 10 to 100 nM; and `CN1CCCC(c2ccn(-c3nc(N4CCOCC4)c4nc(C5CCOCC5)n(C)c4n3)n2)C1` (stereo not shown) [Compound 15], with 1000 to 10000 nM.

Take `Cn1c(C2CCOCC2)nc2c(N3CCOCC3)nc(-n3ccc(C4CCCNC4)n3)nc21` (stereo not shown) [Compound 16]: the IC50 was in the range of 1000 to 10000 nM. The same measure, in the same setting: the figure for `Cn1c(-c2ccncc2)nc2c(N3CCOCC3)nc(-n3ccc(C4CCCNC4)n3)nc21` (stereo not shown) [Compound 17] is 100 to 1000 nM; for `CN1CCC(c2ccn(-c3nc(N4CCOCC4)c4nc(-c5ccncc5)n(C)c4n3)n2)CC1` [Compound 18] it is 100 to 1000 nM; for `Cn1c(C2CCOCC2)nc2c(N3CCOCC3)nc(-n3ccc(-c4cccnc4)n3)nc21` [Compound 19, 4-(9-methyl-2-(3-(pyridin-3-yl)-1H-pyrazol-1-yl)-8-(tetrahydro-2H-pyran-4-yl)-9H-purin-6-yl)morpholine] it is 1000 to 10000 nM. Still for that read-out and setting: then `Cn1c(C2CCOCC2)nc2c(N3CCOCC3)nc(-n3ccc(-c4cncnc4)n3)nc21` [Compound 20], with 1000 to 10000 nM; and `Cn1c(-c2ccncc2)nc2c(N3CCOCC3)nc(-n3ccc(C4CCNCC4)n3)nc21` [Compound 21], with 10 to 100 nM; and `c1cc(-c2nc3c(N4CCOCC4)nc(-n4ccc(C5CCCNC5)n4)nc3[nH]2)ccn1` (stereo not shown) [Compound 22], with 10 to 100 nM.

Take `CC(C)c1ccn(-c2nc(N3CCOCC3)c3nc(-c4ccncc4)n(C)c3n2)n1` [Compound 23]: the IC50 was in the range of 100 to 1000 nM. `Cc1nn(-c2nc(N3CCOCC3)c3nc(-c4ccncc4)n(C)c3n2)c(=O)n1-c1ccccc1` [Compound 24]: the half-maximal inhibitory concentration (IC50) lay in the range of 100 to 1000 nM. On the same count and under the same terms, the figure for `Cn1c(-c2ccncc2)nc2c(N3CCOCC3)nc(-n3ccc(C4CCOCC4)n3)nc21` [Compound 25] is 100 to 1000 nM; for `Cn1c(-c2ccncc2)nc2c(N3CCOCC3)nc(-n3ccc(-c4ccncc4)n3)nc21` [Compound 27] it is 10 to 100 nM; for `Cn1c(-c2ccncc2)nc2c(N3CCOCC3)nc(-n3ccc(C4CCCN(C(=O)OC(C)(C)C)C4)n3)nc21` (stereo not shown) [Compound 29] it is 100 to 1000 nM. `CN1CCCC(c2nc(-c3nc(N4CCOCC4)c4nc(-c5ccncc5)n(C)c4n3)no2)C1` (stereo not shown) [Compound 30]: the IC50 is 100 to 1000 nM. Still for that read-out and setting: then `Cn1c(-c2ccncc2)nc2c(N3CCOCC3)nc(-c3noc(C4CCCNC4)n3)nc21` (stereo not shown) [Compound 31], with 100 to 1000 nM; and `Cn1c(-c2ccncc2)nc2c(N3CCOCC3)nc(-c3noc(C4CCCN(C(=O)OC(C)(C)C)C4)n3)nc21` (stereo not shown) [Compound 33, tert-butyl 3-{3-[9-methyl-6-(morpholin-4-yl)-8-(pyridin-4-yl)-9H-purin-2-yl]-1,2,4-oxadiazol-5-yl}piperidine-1-carboxylate], with 100 to 1000 nM; and `Cn1c(-c2ccncc2)nc2c(N3CCOCC3)nc(-n3ccc(C4CC5(C4)CN(C(=O)OC(C)(C)C)C5)n3)nc21` [Compound 34], with 100 to 1000 nM.

With `Cn1c(-c2ccncc2)nc2c(N3CCOCC3)nc(-n3ccc(C4CC5(CNC5)C4)n3)nc21` [Compound 35], the IC50 lay within 10 to 100 nM. On the same count and under the same terms, the figure for `Cn1c(C2=CCOCC2)nc2c(N3CCOCC3)nc(-n3ccc(-c4cccc(C#N)c4)n3)nc21` [Compound 36, 3-{1-[8-(3,6-dihydro-2H-pyran-4-yl)-9-methyl-6-(morpholin-4-yl)-9H-purin-2-yl]-1H-pyrazol-3-yl}benzonitrile] is 1000 to 10000 nM. Same read-out and setting: then `Cn1c(-c2ccncc2)nc2c(N3CCOCC3)nc(-n3ccc(C4CCNC4)n3)nc21` (stereo not shown) [Compound 38], with 100 to 1000 nM; and `Cn1c(C2CCOCC2)nc2c(N3CCOCC3)nc(-n3ccc(-c4cccc(C#N)c4)n3)nc21` [Compound 39], with 1000 to 10000 nM. Same read-out and setting: then `Cn1c(-c2ccncc2)nc2c(N3CCOCC3)nc(-n3ccc(C4CCN(C(=O)OC(C)(C)C)C4)n3)nc21` (stereo not shown) [Compound 40], with 100 to 1000 nM; and `Cn1c(-c2ccncc2)nc2c(N3CCOCC3)nc(-c3ccn(C4CCCNC4)n3)nc21` (stereo not shown) [Compound 41], with 100 to 1000 nM; and `Cn1c(-c2ccncc2)nc2c(N3CCOCC3)nc(-c3ccnn3C3CCCN(C(=O)OC(C)(C)C)C3)nc21` (stereo not shown) [Compound 42], with 100 to 1000 nM. On to `Cn1c(-c2ccncc2)nc2c(N3CCOCC3)nc(-c3ccn(C4CCCN(C(=O)OC(C)(C)C)C4)n3)nc21` (stereo not shown) [Compound 43], for which the IC50 was 100 to 1000 nM. With `Cn1c(-c2ccncc2)nc2c(N3CCOCC3)nc(-c3cccc4c3OCCO4)nc21` [Compound 44], the IC50 was 100 to 1000 nM. The same measure, in the same setting: the figure for `Cn1c(-c2ccncc2)nc2c(N3CCOCC3)nc(-c3ccc4c(c3)OCCO4)nc21` [Compound 45] is 10 to 100 nM; for `Cn1c(-c2ccncc2)nc2c(N3CCOCC3)nc(-c3ccn(-c4ccccc4)n3)nc21` [Compound 46, 9-methyl-6-(morpholin-4-yl)-2-(1-phenyl-1H-pyrazol-3-yl)-8-(pyridin-4-yl)-9H-purine] it is 10 to 100 nM. Regarding `Cn1ccc(-c2nc(N3CCOCC3)c3nc(-c4ccncc4)n(C)c3n2)n1` [Compound 48], the IC50 is 100 to 1000 nM. On the same count and under the same terms, the figure for `Cn1c(-c2ccncc2)nc2c(N3CCOCC3)nc(-c3cc[nH]n3)nc21` [Compound 49] is 10 to 100 nM. Same read-out and setting: then `Cn1c(-c2ccncc2)nc2c(N3CCOCC3)nc(-n3nc(C4CCCCC4)[nH]c3=O)nc21` [Compound 50, 3-cyclohexyl-1-[9-methyl-6-(morpholin-4-yl)-8-(pyridin-4-yl)-9H-purin-2-yl]-4,5-dihydro-1H-1,2,4-triazol-5-one], with 100 to 1000 nM.

In the case of `Cn1c(-c2ccncc2)nc2c(N3CCOCC3)nc(-n3ccc(CC4CNC4)n3)nc21` [Compound 80, 4-(2-(3-(azetidin-3-ylmethyl)-1H-pyrazol-1-yl)-9-methyl-8-(pyridin-4-yl)-9H-purin-6-yl)morpholine], the IC50 is 100 to 1000 nM.

As for `CN1CC(c2nc3c(N4CCOCC4)nc(-n4ccc(-c5ccccc5)n4)nc3n2C)C1` [Compound 81, 4-(9-methyl-8-(1-methylazetidin-3-yl)-2-(3-phenyl-1H-pyrazol-1-yl)-9H-purin-6-yl)morpholine], the half-inhibitory concentration (IC50) fell in the range of 100 to 1000 nM. Consider `Cn1c(-c2ccncc2)nc2c(N3CCOCC3)nc(-n3ccc(-c4cncnc4)n3)nc21` [Compound 82, 4-(9-methyl-8-(pyridin-4-yl)-2-(3-(pyrimidin-5-yl)-1H-pyrazol-1-yl)-9H-purin-6-yl)morpholine], for which the IC50 lay in the range of 10 to 100 nM.

Still in this test, the particulars now being: values plotted in FIG. 7; read-out: PIKFYVE Biochemistry (IC50).
As for `c1ccc(-c2nc(-c3cc(N4CCOCC4)nc(OCc4ccncc4)n3)no2)cc1`, the IC50 is > 10000 nM. Still for that read-out and setting: the figure for `O=c1c(CCOc2cccnc2)cc2ncncc2n1-c1ccccc1` is > 10000 nM; for `O=c1ccn(Cc2nc(N3CCOCC3)cc(-n3nccc3-c3ccccc3)n2)cc1` it is > 10000 nM.
